# ChEMBL document CHEMBL5465560, “Selectivity Literature for EUbOPEN Chemogenomic Library” (2024)
# Assays:
# [1] = biological target: Delta-type opioid receptor (Homo sapiens, UniProt P41143); experiment: Selectivity interaction (Opiate Delta receptor assay, human recombinant ) EUB0000877a OPRD1
# [2] = biological target: Mitogen-activated protein kinase kinase kinase 20 (Homo sapiens) (UniProt Q9NYL2); experiment: Selectivity interaction (KinomeScan (DiscoverX)) EUB0000695a MAP3K20; conditions: at 100 nM
# [3] = biological target: Tyrosine-protein kinase Blk (Homo sapiens) (UniProt P51451); experiment: Selectivity interaction (KinomeScan (DiscoverX)) EUB0001049a BLK; conditions: at 1 µM
# [4] = biological target: T1, Bone morphogenetic protein receptor type-2 (Homo sapiens) (UniProt Q13873); experiment: Selectivity interaction (KinomeScan (DiscoverX)) EUB0000655a BMPR2; conditions: at 10 µM
# T1 sequence (whole entry): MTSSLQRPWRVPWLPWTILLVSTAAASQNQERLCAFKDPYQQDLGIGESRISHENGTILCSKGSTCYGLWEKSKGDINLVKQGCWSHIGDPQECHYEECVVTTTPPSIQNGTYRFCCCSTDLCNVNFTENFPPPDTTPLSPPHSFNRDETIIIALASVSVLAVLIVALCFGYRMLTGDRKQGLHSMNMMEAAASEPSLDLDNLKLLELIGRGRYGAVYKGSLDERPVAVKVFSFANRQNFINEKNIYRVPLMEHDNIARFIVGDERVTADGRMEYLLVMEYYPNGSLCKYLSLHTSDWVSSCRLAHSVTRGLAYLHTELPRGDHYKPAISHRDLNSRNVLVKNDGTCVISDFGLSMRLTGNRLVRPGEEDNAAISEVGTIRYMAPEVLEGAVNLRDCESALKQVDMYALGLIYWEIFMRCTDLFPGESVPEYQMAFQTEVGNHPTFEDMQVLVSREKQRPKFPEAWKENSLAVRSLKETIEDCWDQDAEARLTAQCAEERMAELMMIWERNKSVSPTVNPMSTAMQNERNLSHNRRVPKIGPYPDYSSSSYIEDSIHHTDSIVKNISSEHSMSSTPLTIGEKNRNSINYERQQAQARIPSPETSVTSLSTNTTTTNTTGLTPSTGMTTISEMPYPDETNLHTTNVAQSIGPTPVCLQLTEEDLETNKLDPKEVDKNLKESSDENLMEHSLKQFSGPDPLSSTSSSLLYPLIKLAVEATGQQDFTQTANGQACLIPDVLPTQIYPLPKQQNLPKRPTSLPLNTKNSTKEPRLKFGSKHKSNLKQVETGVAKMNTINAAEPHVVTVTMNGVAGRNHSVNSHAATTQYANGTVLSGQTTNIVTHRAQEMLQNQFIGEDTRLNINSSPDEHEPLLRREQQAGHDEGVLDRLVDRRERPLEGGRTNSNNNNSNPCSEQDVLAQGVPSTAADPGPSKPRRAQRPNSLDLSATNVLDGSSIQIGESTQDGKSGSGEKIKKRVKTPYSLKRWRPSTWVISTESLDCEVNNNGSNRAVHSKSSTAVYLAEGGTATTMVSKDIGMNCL
# [5] = biological target: T2, Interleukin-1 receptor-associated kinase 4 (Homo sapiens) (UniProt Q9NWZ3); experiment: Selectivity interaction (KinomeScan (DiscoverX)) EUB0000045b IRAK4
# T2 sequence (whole entry): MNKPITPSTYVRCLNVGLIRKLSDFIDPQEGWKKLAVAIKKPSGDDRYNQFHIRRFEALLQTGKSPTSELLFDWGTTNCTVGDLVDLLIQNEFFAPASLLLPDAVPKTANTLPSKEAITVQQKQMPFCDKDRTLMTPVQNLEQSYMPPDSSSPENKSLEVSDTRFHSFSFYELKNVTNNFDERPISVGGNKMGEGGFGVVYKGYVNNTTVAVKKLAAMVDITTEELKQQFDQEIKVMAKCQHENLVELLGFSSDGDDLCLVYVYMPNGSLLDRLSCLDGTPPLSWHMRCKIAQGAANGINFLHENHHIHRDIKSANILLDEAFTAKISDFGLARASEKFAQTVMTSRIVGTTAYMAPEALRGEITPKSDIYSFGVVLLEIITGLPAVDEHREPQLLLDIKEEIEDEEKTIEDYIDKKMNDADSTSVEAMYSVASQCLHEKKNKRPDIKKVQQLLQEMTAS
# [6] = biological target: Cyclin-dependent kinase 9 (Homo sapiens, UniProt P50750); conditions: at 10 µM
# [7] = biological target: T3, Serine/threonine-protein kinase Nek9 (Homo sapiens) (UniProt Q8TD19); experiment: Selectivity interaction (KinomeScan (DiscoverX)) EUB0000618a NEK9; conditions: at 10 µM
# T3 sequence (whole entry): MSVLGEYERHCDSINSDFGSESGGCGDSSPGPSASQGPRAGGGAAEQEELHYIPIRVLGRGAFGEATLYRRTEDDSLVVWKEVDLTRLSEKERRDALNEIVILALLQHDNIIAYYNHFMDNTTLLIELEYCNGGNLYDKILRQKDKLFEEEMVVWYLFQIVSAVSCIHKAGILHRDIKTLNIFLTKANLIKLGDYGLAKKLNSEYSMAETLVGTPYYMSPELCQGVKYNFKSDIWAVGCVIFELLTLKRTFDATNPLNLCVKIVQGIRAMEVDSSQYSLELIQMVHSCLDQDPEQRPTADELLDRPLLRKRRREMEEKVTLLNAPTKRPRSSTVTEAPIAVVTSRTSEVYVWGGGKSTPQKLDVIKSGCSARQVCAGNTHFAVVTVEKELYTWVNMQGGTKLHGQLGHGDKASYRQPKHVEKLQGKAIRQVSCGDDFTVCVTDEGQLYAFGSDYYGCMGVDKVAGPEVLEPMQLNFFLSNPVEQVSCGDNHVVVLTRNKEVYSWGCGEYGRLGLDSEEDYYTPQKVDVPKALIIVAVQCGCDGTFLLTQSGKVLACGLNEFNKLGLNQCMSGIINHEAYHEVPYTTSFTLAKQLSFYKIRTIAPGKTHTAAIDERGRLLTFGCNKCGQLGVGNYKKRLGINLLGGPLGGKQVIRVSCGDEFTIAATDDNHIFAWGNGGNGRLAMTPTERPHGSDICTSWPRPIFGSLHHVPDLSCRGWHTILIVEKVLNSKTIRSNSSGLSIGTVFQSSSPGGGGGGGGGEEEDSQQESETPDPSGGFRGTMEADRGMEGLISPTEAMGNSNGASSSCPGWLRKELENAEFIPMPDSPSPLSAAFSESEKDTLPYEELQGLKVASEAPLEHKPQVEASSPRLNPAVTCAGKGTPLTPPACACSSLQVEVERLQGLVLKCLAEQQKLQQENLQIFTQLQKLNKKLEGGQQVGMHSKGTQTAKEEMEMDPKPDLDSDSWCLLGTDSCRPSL
# [8] = biological target: Mitogen-activated protein kinase 10 (Homo sapiens, UniProt P53779); experiment: Selectivity interaction (KinomeScan (DiscoverX)) EUB0001619a MAPK10; conditions: at 1 µM
# Sequence of Mitogen-activated protein kinase 10 (P53779 whole entry): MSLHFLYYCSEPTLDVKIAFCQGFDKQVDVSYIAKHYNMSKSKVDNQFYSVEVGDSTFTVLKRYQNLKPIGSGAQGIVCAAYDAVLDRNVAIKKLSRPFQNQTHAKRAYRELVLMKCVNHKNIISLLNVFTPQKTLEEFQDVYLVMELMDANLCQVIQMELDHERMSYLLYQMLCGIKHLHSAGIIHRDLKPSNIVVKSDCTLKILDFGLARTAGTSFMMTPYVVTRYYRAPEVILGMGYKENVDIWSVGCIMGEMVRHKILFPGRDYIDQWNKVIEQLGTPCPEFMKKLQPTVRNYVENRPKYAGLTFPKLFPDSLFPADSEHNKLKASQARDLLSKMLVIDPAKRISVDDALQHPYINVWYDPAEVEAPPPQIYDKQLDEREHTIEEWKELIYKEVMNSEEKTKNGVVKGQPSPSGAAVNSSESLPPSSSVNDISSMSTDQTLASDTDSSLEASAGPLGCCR
# Sequence of Mitogen-activated protein kinase kinase kinase 20 (Homo sapiens) (Q9NYL2 2-800 limits assumed): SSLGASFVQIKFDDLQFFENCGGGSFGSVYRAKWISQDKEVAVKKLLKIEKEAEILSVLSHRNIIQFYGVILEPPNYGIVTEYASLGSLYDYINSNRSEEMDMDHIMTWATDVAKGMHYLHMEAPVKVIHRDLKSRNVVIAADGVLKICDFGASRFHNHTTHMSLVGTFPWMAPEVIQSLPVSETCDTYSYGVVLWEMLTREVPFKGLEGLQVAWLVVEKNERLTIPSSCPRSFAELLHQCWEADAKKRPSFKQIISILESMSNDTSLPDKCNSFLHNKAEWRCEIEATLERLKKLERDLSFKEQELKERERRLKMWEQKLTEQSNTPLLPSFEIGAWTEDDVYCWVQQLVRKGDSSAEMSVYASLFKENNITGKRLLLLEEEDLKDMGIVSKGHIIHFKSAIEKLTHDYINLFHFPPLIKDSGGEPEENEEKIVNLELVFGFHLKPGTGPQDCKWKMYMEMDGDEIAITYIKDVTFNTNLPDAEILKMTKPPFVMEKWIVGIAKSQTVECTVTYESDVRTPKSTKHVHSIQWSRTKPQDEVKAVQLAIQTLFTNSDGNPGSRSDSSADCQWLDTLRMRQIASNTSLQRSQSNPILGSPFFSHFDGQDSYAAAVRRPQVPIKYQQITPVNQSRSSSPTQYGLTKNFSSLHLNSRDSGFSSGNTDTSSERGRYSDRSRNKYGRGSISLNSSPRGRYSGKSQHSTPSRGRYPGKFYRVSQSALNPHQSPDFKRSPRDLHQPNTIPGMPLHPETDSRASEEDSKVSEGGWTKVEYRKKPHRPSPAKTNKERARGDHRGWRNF
# Sequence of Cyclin-dependent kinase 9 (P50750 whole entry): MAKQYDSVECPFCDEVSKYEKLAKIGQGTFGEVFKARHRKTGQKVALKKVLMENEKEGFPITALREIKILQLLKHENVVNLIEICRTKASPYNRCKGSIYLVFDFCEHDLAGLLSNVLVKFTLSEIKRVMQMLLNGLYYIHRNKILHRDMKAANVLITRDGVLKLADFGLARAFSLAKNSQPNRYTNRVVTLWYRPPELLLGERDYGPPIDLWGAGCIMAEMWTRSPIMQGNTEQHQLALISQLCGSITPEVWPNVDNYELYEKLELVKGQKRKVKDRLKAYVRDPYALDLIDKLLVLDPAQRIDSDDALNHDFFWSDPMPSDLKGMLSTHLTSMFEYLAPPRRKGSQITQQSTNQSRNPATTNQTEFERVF
# Sequence of Delta-type opioid receptor (P41143 whole entry): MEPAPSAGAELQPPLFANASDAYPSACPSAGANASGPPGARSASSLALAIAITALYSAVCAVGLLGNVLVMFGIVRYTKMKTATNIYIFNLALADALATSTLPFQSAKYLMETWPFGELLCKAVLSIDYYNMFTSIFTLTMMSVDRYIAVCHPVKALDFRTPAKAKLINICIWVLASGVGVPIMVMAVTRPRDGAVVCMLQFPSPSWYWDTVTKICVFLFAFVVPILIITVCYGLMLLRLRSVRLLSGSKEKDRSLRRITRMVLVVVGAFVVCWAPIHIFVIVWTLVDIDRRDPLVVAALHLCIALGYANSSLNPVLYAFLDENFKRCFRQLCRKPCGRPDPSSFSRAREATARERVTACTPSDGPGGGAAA
# Sequence of Tyrosine-protein kinase Blk (Homo sapiens) (P51451 2-505 limits assumed): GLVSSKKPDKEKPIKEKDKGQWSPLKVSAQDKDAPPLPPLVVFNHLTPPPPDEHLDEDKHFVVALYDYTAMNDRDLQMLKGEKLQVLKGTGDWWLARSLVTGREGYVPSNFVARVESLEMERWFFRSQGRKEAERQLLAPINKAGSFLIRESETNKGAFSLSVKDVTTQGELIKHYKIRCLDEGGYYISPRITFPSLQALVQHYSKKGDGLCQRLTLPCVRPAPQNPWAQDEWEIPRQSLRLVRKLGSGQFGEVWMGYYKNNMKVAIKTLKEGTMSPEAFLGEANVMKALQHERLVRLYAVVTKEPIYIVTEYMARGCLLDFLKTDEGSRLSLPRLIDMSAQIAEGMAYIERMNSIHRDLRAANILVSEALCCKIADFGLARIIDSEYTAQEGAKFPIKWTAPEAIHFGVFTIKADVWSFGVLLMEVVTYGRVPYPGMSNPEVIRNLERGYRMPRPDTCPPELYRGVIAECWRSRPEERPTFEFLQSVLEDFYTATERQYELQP
smiles,measurement,setting,value
CCC(=O)N1CC[C@H](Nc2ncnc3c2CN(c2cnc(OC)c(C(F)(F)F)c2)CC3)C1 [LENIOLISIB],IC50,[1],> 30 µM
Cc1cc(F)c(C(=O)Nc2cccc(-c3nncn3C(C)C)n2)cc1-n1cnc(C2CC2)c1,% of control,[2],96%
COc1cc(Nc2nc(C)cc(-c3cnn4nc(OC)ccc34)n2)cc(C(F)(F)F)c1,% of control,[3],100%
CN(C)CCOc1ccc(-c2nc(-c3ccncc3)c(-c3ccc4c(c3)CC/C4=N\O)[nH]2)cc1,% of control,[4],47%
C=CC(=O)Nc1cc(-n2c(=O)ccc3cnc4ccc(-c5ccc(NS(C)(=O)=O)cc5)cc4c32)ccc1C,% of control,[5]; at 1 µM,84%
same,% of control,[5]; at 10 µM,100%
Cc1cc([C@@H](C)Nc2ccccc2C(=O)O)c2nc(N3CCOCC3)cc(=O)n2c1 [AZD-6482],% of control,[6],100%
O[C@H]1CC[C@H](Nc2ncc3nc(Nc4c(F)cc(F)cc4F)n([C@H]4CCOC4)c3n2)CC1,% of control,[7],100%
N#Cc1cccc(-c2c[nH]c3ncnc(N4CCOCC4)c23)c1,% of control,[8],100%
